Results from ChEMBL document CHEMBL1125188, “Synthesis and evaluation of stilbene and dihydrostilbene derivatives as potential anticancer agents that inhibit tubulin polymerization” (J Med Chem, 1991).

Experiments:
Assay type in all cases: functional
Conditions in all cases: Homo sapiens, read-out: ED50 (the source's name)
[1] = system: HT-29; experiment: Cytotoxic concentration required to inhibit 50% cell growth in HT-29 colon adenocarcinoma cell lines
[2] = system: MLM; experiment: Cytotoxic concentration required to inhibit 50% cell growth in MLM melanoma cell lines
[3] = system: MCF7; experiment: Cytotoxic concentration required to inhibit 50% cell growth in MCF-7 breast carcinoma cell lines
[4] = system: SK-MEL-5; experiment: Cytotoxic concentration required to inhibit 50% cell growth in SKMEL-5 melanoma cell lines
[5] = system: A549; experiment: Cytotoxic concentration required to inhibit 50% cell growth in A-549 lung carcinoma cell lines

SMILES | EC50 [1] | EC50 [2] | EC50 [3] | EC50 [4] | EC50 [5]
COc1ccc(C(=O)Nc2cc(OC)cc(OC)c2)cc1 | > 25 µM | > 25 µM | > 25 µM | > 25 µM | > 25 µM
COc1ccc(C(=O)Nc2cc(OC)c(OC)c(OC)c2)cc1OC | > 25 µM | > 25 µM | > 25 µM | > 25 µM | > 25 µM
COc1cc(CCc2ccc(N)cc2)cc(OC)c1OC | 24.6 µM | > 25 µM | 11.9 µM | 12.7 µM | 12.2 µM
COc1cc(/C=C\c2ccc([N+](=O)[O-])cc2)cc(OC)c1OC | > 25 µM | > 25 µM | > 25 µM | > 25 µM | > 25 µM
COc1cc(/C=C/c2ccncc2)cc(OC)c1OC | > 25 µM | > 25 µM | > 25 µM | > 25 µM | > 25 µM
COc1cc(NC(=O)c2cc(OC)c(OC)c(OC)c2)cc(OC)c1OC | > 25 µM | > 25 µM | > 25 µM | > 25 µM | > 25 µM
COc1cc(/C=C/c2ccc(OC)c(OC)c2OC)cc(OC)c1OC | 10.3 µM | 23.9 µM | 14.7 µM | 10.6 µM | 12.5 µM
COc1cc(/C=C/c2cc(OC)c(OC)c(OC)c2)cc(OC)c1 | > 25 µM | > 25 µM | > 25 µM | > 25 µM | > 25 µM
COc1ccccc1/C=C/c1cc(OC)c(OC)c(OC)c1 | 12.1 µM | > 25 µM | 18 µM | 13.5 µM | 12.2 µM
COc1cc(/C=C/c2ccc(O)cc2)cc(OC)c1OC | > 25 µM | 24.2 µM | 18.6 µM | 11.6 µM | > 25 µM
COc1cc(OC)c(OC)cc1/C=C/c1ccccc1 | > 25 µM | > 25 µM | 8.5 µM | > 25 µM | > 25 µM
COc1cc(/C=C/c2ccc(N)cc2)cc(OC)c1OC | > 25 µM | > 25 µM | > 25 µM | > 25 µM | > 25 µM
COc1ccc(/C=C/c2cc(OC)c(OC)c(OC)c2)c(Cl)c1 | > 25 µM | > 25 µM | > 25 µM | > 25 µM | > 25 µM
COc1cc(/C=C/c2cccnc2)cc(OC)c1OC | > 25 µM | > 25 µM | > 25 µM | > 25 µM | > 25 µM
COc1ccc(C(=O)Nc2cc(OC)c(OC)c(OC)c2)cc1 | > 25 µM | > 25 µM | > 25 µM | > 25 µM | > 25 µM
COc1cc(/C=C/c2ccccn2)cc(OC)c1OC | > 25 µM | > 25 µM | > 25 µM | > 25 µM | > 25 µM
COc1cc(OC)c(OC)cc1CCc1cc(OC)c(OC)c(OC)c1 | > 25 µM | > 25 µM | > 25 µM | > 25 µM | > 25 µM
COc1cccc2c1C(=O)c1c(O)c3c(c(O)c1C2=O)C[C@@](O)(C(=O)CO)C[C@@H]3O[C@H]1C[C@H](N)[C@H](O)[C@H](C)O1 [DOXORUBICIN] | 0.055 µM | 0.13 µM | 0.031 µM | 0.032 µM | 0.029 µM
COc1ccc(CNc2cc(OC)c(OC)c(OC)c2)cc1OC | > 25 µM | > 25 µM | > 25 µM | > 25 µM | > 25 µM
COc1cc(CCc2cccnc2)cc(OC)c1OC | > 25 µM | > 25 µM | > 25 µM | > 25 µM | 12.2 µM
COc1cc(CCc2ccccc2)cc(OC)c1OC | > 25 µM | > 25 µM | > 25 µM | > 25 µM | > 25 µM
COc1cc(/C=C\c2ccncc2)cc(OC)c1OC | 12.9 µM | > 25 µM | 17 µM | 14.4 µM | 14.2 µM
COc1cc(/C=C/c2ccc(OC)c(OC)c2)cc(OC)c1 [(E)-3,4,3',5'-TETRAMETHOXYSTILBENE] | > 25 µM | > 25 µM | > 25 µM | > 25 µM | > 25 µM
COc1ccc(NC(=O)c2cc(OC)c(OC)c(OC)c2)cc1 | 22.7 µM | > 25 µM | 12.2 µM | > 25 µM | 14.1 µM
COc1ccccc1/C=C\c1cc(OC)c(OC)c(OC)c1 | 0.87 µM | 8.6 µM | 1.3 µM | 1.2 µM | 1.1 µM
COc1cc(CCc2ccc(NC(C)=O)cc2)cc(OC)c1OC | > 25 µM | > 25 µM | > 25 µM | > 25 µM | > 25 µM
COc1ccc(NC(=O)c2cc(OC)cc(OC)c2)cc1 | 14.5 µM | > 25 µM | 5.47 µM | 11.9 µM | 9.02 µM
COc1cc(CCc2ccncc2)cc(OC)c1OC | > 25 µM | > 25 µM | > 25 µM | > 25 µM | > 25 µM

SMILES | EC50 [1] | EC50 [2] | EC50 [3] | EC50 [4] | EC50 [5]
COc1ccc(CCc2ccccc2)cc1OC | > 25 µM | > 25 µM | > 25 µM | > 25 µM | > 25 µM
COc1cc(/C=C/c2ccccc2)cc(OC)c1OC | > 25 µM | > 25 µM | > 25 µM | > 25 µM | > 25 µM
COc1ccccc1CCc1cc(OC)c(OC)c(OC)c1 | > 25 µM | > 25 µM | 11.8 µM | 20 µM | 13.5 µM
COc1cc(CCc2cc(OC)c(OC)c(OC)c2)cc(OC)c1 | > 25 µM | > 25 µM | > 25 µM | > 25 µM | > 25 µM
COc1ccc(/C=C\c2cc(OC)c(OC)c(OC)c2)cc1O [COMBRETASTATIN A4] | 1.2e-05 µM | 1.4e-05 µM | 3.8e-06 µM | – | –
COc1cc(/C=C/c2ccc([N+](=O)[O-])cc2)cc(OC)c1OC | > 25 µM | > 25 µM | > 25 µM | > 25 µM | > 25 µM
COc1ccc(/C=C/c2ccccc2)c(OC)c1OC | > 25 µM | > 25 µM | > 25 µM | > 25 µM | > 25 µM
COc1cccc(CCc2cc(OC)c(OC)c(OC)c2)c1 | 7.6 µM | > 25 µM | 12.4 µM | 9.2 µM | 11.7 µM
COc1cccc(/C=C/c2cc(OC)c(OC)c(OC)c2)c1 | 7.3 µM | > 25 µM | 12.2 µM | 0.5 µM | 9.8 µM
COc1ccc(CNc2cc(OC)cc(OC)c2)cc1 | > 25 µM | > 25 µM | > 25 µM | > 25 µM | > 25 µM
COc1cc(/C=C/c2ccc(Cl)cc2)cc(OC)c1OC | > 25 µM | > 25 µM | > 25 µM | > 25 µM | > 25 µM
COc1cc(/C=C\c2ccc(O[Si](C)(C)C(C)(C)C)cc2)cc(OC)c1OC | 10.6 µM | 17.2 µM | 7.29 µM | 7.59 µM | 11 µM
COc1ccc(CCc2ccccc2)c(OC)c1OC | > 25 µM | > 25 µM | > 25 µM | > 25 µM | > 25 µM
COc1cc(/C=C/c2cc(OC)c(OC)c(OC)c2)cc(OC)c1OC | > 25 µM | > 25 µM | > 25 µM | > 25 µM | > 25 µM
COc1cc(CCc2ccc(OC)c(OC)c2OC)cc(OC)c1OC | > 25 µM | > 25 µM | > 25 µM | > 25 µM | > 25 µM
COc1cc(CCc2ccc(OC(C)=O)cc2)cc(OC)c1OC | > 25 µM | > 25 µM | > 25 µM | > 25 µM | 19 µM
COc1cc(/C=C/c2ccc(OC(C)=O)cc2)cc(OC)c1OC | 5.4 µM | 13 µM | 9.6 µM | 4.6 µM | 9.7 µM
COc1cc(CCc2ccc(O)cc2)cc(OC)c1OC | > 25 µM | > 25 µM | > 25 µM | > 25 µM | > 25 µM
COc1cc(/C=C\c2cccnc2)cc(OC)c1OC | 9.8 µM | > 25 µM | 14.7 µM | 6 µM | 13.7 µM
COc1cc(OC)c(/C=C/c2ccccc2)c(OC)c1 | > 25 µM | > 25 µM | > 25 µM | > 25 µM | > 25 µM
COc1ccc(/C=C/c2ccccc2)cc1OC | > 25 µM | > 25 µM | > 25 µM | > 25 µM | > 25 µM
COc1cc(CCc2cc(OC)c(OC)c(OC)c2)cc(OC)c1OC | > 25 µM | > 25 µM | > 25 µM | > 25 µM | > 25 µM
COc1cc(CNc2cc(OC)c(OC)c(OC)c2)cc(OC)c1OC | > 25 µM | > 25 µM | > 25 µM | > 25 µM | > 25 µM
COc1cc(OC)c(OC)cc1/C=C/c1cc(OC)c(OC)c(OC)c1 | > 25 µM | > 25 µM | > 25 µM | > 25 µM | > 25 µM
COc1cc(/C=C/c2ccc(O[Si](C)(C)C(C)(C)C)cc2)cc(OC)c1OC | > 25 µM | > 25 µM | > 25 µM | > 25 µM | > 25 µM
COc1cc(/C=C\c2ccc(O)cc2)cc(OC)c1OC | 1.75 µM | 12.6 µM | 5.7 µM | 2.27 µM | 12.7 µM
COc1ccc(/C=C\c2ccc(OC)c(OC)c2OC)cc1 | 1 µM | 10.9 µM | 0.23 µM | 1.1 µM | 0.97 µM
